# Measurements published in patent publication US9771369B2, “Compounds and methods for kinase modulation, and indications therefor” (Plexxikon Inc., priority 2014, dated 2017).
# Target: c-kit mutant D816V (Homo sapiens (Human), UniProt P10721, D816V/DEL694-753)
# Test: c-Kit mutant D816V biochemical assay (AlphaScreen kinase activity)
# Procedure, shortened: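 Recombinant His-tagged c-Kit D816V kinase domain (residues 551-934, insert 694-753 deleted, E. coli-expressed) phosphorylating 30 nM biotin-(E4Y)10 with 10 μM ATP, HEPES pH 7.2, Mg/Mn, 5% DMSO; 30 min, room temperature. Phosphorylation detected by AlphaScreen (streptavidin donor/PY30 acceptor beads); IC50 from 8-point 1:3 series.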
# c-kit mutant D816V, sequence (P10721 other isoform, or with tags, fused parts or gaps D816V/del 694-753): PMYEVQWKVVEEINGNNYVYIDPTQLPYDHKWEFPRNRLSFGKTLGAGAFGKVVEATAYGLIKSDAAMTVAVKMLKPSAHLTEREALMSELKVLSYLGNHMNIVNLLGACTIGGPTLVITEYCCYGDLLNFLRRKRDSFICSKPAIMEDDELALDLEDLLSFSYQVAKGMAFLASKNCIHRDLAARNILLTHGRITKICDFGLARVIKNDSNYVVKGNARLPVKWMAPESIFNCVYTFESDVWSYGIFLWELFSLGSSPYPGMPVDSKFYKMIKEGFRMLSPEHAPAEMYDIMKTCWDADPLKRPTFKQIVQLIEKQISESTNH
row,Compound,IC50
1,"Cc1nc(C2CCN(c3ncnc4[nH]c(-c5ccc(F)cc5)cc34)CC2)[nH]c1-c1ccccc1 [P-3002, 6-(4-fluorophenyl)-4-[4-(4-methyl-5-phenyl-1H-imidazol-2-yl)-1-piperidyl]-7H-pyrrolo[2,3-d]pyrimidine]",0.0001 to 1 µM
2,"COc1cc(-c2cc3c(N4CCC(c5nc(C)c(-c6ccccc6)[nH]5)CC4)ncnc3[nH]2)ccn1 [P-3003, 6-(2-methoxy-4-pyridyl)-4-[4-(4-methyl-5-phenyl-1H-imidazol-2-yl)-1-piperidyl]-7H-pyrrolo[2,3-d]pyrimidine]",0.0001 to 1 µM
3,"Cc1cc2c(N3CCC(c4nc(C)c(-c5ccccc5)[nH]4)CC3)ncnc2[nH]1 [P-3004, 6-methyl-4-[4-(4-methyl-5-phenyl-1H-imidazol-2-yl)-1-piperidyl]-7H-pyrrolo[2,3-d]pyrimidine]",1 to 10 µM
4,"Cc1cc2c(N3CCC(c4nc(C)c(-c5ccc(F)cc5)[nH]4)CC3)ncnc2[nH]1 [P-3005, 4-[4-[5-(4-fluorophenyl)-4-methyl-1H-imidazol-2-yl]-1-piperidyl]-6-methyl-7H-pyrrolo[2,3-d]pyrimidine]",1 to 10 µM
5,"COc1cc(-c2cc3c(N4CCC(c5nc(C)c(-c6cccc(F)c6)[nH]5)CC4)ncnc3[nH]2)ccn1 [P-3019, 4-[4-[5-(3-fluorophenyl)-4-methyl-1H-imidazol-2-yl]-1-piperidyl]-6-(2-methoxy-4-pyridyl)-7H-pyrrolo[2,3-d]pyrimidine]",0.0001 to 1 µM
6,"Cc1nc(C2CCN(c3ncnc4[nH]c(-c5ccc(C#N)cc5)cc34)CC2)[nH]c1-c1ccc(F)cc1 [P-3020, 4-[4-[4-[5-(4-fluorophenyl)-4-methyl-1H-imidazol-2-yl]-1-piperidyl]-7H-pyrrolo[2,3-d]pyrimidin-6-yl]benzonitrile]",0.0001 to 1 µM
7,"COc1cccc(-c2[nH]c(C3CCN(c4ncnc5[nH]c(-c6ccc(C#N)cc6)cc45)CC3)nc2C)c1 [P-3021, 4-[4-[4-[5-(3-methoxyphenyl)-4-methyl-1H-imidazol-2-yl]-1-piperidyl]-7H-pyrrolo[2,3-d]pyrimidin-6-yl]benzonitrile]",0.0001 to 1 µM
8,"COc1cccc(-c2[nH]c(C3CCN(c4ncnc5[nH]c(-c6ccnc(OC)c6)cc45)CC3)nc2C)c1 [P-3022, 4-[4-[5-(3-methoxyphenyl)-4-methyl-1H-imidazol-2-yl]-1-piperidyl]-6-(2-methoxy-4-pyridyl)-7H-pyrrolo[2,3-d]pyrimidine]",0.0001 to 1 µM
9,"COc1cc(-c2cc3c(N4CCC(c5nc(C)c(-c6ccc(OC)c(C)c6)[nH]5)CC4)ncnc3[nH]2)ccn1 [P-3023, 4-[4-[5-(4-methoxy-3-methyl-phenyl)-4-methyl-1H-imidazol-2-yl]-1-piperidyl]-6-(2-methoxy-4-pyridyl)-7H-pyrrolo[2,3-d]pyrimidine]",0.0001 to 1 µM
10,"CCOc1cccc(-c2[nH]c(C3CCN(c4ncnc5[nH]c(-c6ccc(F)cc6)cc45)CC3)nc2C)c1 [P-3024, 4-[4-[5-(3-ethoxyphenyl)-4-methyl-1H-imidazol-2-yl]-1-piperidyl]-6-(4-fluorophenyl)-7H-pyrrolo[2,3-d]pyrimidine]",0.0001 to 1 µM
11,"CCOc1cccc(-c2[nH]c(C3CCN(c4ncnc5[nH]c(-c6ccc(C#N)cc6)cc45)CC3)nc2C)c1 [P-3025, 4-[4-[4-[5-(3-ethoxyphenyl)-4-methyl-1H-imidazol-2-yl]-1-piperidyl]-7H-pyrrolo[2,3-d]pyrimidin-6-yl]benzonitrile]",0.0001 to 1 µM
12,"CCOc1ccc(-c2[nH]c(C3CCN(c4ncnc5[nH]c(-c6ccc(F)cc6)cc45)CC3)nc2C)cc1 [P-3026, 4-[4-[5-(4-ethoxyphenyl)-4-methyl-1H-imidazol-2-yl]-1-piperidyl]-6-(4-fluorophenyl)-7H-pyrrolo[2,3-d]pyrimidine]",0.0001 to 1 µM
13,"CCOc1ccc(-c2[nH]c(C3CCN(c4ncnc5[nH]c(-c6ccc(C#N)cc6)cc45)CC3)nc2C)cc1 [P-3027, 4-[4-[4-[5-(4-ethoxyphenyl)-4-methyl-1H-imidazol-2-yl]-1-piperidyl]-7H-pyrrolo[2,3-d]pyrimidin-6-yl]benzonitrile]",0.0001 to 1 µM
